Laboratory results: publication PMC8724251, “A Supramolecular Nanoparticle of Pemetrexed Improves the Anti-Tumor Effect by Inhibiting Mitochondrial Energy Metabolism” (Frontiers in Bioengineering and Biotechnology, 2021)
Read-outs that look alike come from different tables or passages of the source. Square brackets hold non-standard residues; d marks the D form. Ends that are not written are not given here. Peptide text beside a SMILES is read from it. * marks the point of attachment. ξ: configuration not given here. X1 = Nc1nc2[nH]cc(CCc3ccc(C(=O)*)cc3)c2c(=O)[nH]1; ξE = NC(CCC(=O)O)C(=O)O

Tests used:
[1] = tested on: LLC cells; test: Live/dead assay (calcein-AM / EthD-1), LLC cells; type: cell-based; settings: 6 μM, 72 h, calcein-AM/EthD-1, microscopy
Protocol: (§1) LLC cells and A549 cells (5,000 cells/well) were plated in 96-well plates and cultured for 24 h. Then, the cells were cocultured with 6 and 12 µM PEM and PEM-FFRGD for 72 h, respectively. The cells were washed with PBS and stained with calcein-AM and ethidium homodimer-1 (EthD-1) for 15 min. Then, the cells were viewed under microscopy (TI-S, Nikon, United States).

[2] = tested on: A549 cells; test: Live/dead assay (calcein-AM / EthD-1), A549 cells; type: cell-based; settings: 12 μM, 72 h, calcein-AM/EthD-1, microscopy
Protocol: as §1

[3] = tested on: LLC cells; test: MTT viability assay, LLC cells
Protocol: (§2) Lewis lung cancer (LLC) and A549 cells (100 µl) were plated at a concentration of 5 × 10^3 cells/well in a flat-bottomed 96-well plate on Day 0. […] Then, the culture medium was removed, and MTT (0.5 mg/ml) was added to each well and incubated for 4 h. The supernatant was discarded, and dimethyl sulfoxide (100 µl) was used to completely dissolve the crystals.

[4] = Body weight and serum TNFα, IL-6, ALT, AST in LLC tumor-bearing mice; type: in vivo, C57BL/6J mice; settings: for mouse weight: i.v., monitored every 2 days
Protocol: (§3) C57BL/6J mice were subcutaneously inoculated with Lewis lung tumors and then randomly divided into four groups (5 mice per group) when the tumor sizes were approximately 100 mm^3. Mice in Groups 1 and 2 received PBS and FFRGD gels through i.v. injections, while mice in Groups 3 and 4 were administered 20 mg/kg PEM and PEM-FFRGD nanoparticles by i.v. injection. Repeated injections were administered on Days 1 and 5. Tumor size and body weight were monitored every 2 days, and the tumor volume was calculated according to the following formula: tumor volume (V, mm^3) = (tumor width)^2 × (tumor length)/2.

[5] = tested on: Lewis lung tumors; test: In vivo antitumor efficacy in LLC tumor-bearing mice; design: species or system C57BL/6J mice; settings: LLC subcutaneous tumors, i.v., 20 mg/kg, two injections, tumor volumes within 2 weeks, n = 5
Protocol: as §3

[6] = tested on: A549 cells; test: MTT viability assay, A549 cells
Protocol: as §2

[7] = LLC tumor-bearing mice, i.v. 20 mg/kg, n = 5

| Compound | cell killing in live/dead staining, LLC cells [1] | cell killing in live/dead staining, A549 cells [2] | cytotoxicity toward LLC cells, 24 h [3] | mouse weight ([4]; LLC tumor-bearing mice, n = 5) | tumor growth [5] | cytotoxicity toward A549 cells, 24 h [6] | cytotoxic activity toward LLC cells compared with PEM alone [3] | cytotoxicity toward LLC cells, 48 h [3] | serum level of ALT versus PBS and PEM alone [4, 7] | serum level of AST versus PBS and PEM alone [4, 7] | serum level of IL-6 versus PBS and PEM alone [4, 7] | serum level of TNFα versus PBS and PEM alone [4, 7] | systemic toxicity in mice ([4]; from body weight and serum TNFα, IL-6, ALT, AST) | cytotoxicity toward A549 cells, 24 h ([6]; MTT, different concentrations, 24 h incubation) | cytotoxicity toward A549 cells, 48 h ([6]; MTT, different concentrations, 48 h incubation, viability lower than with PEM) | cytotoxic activity toward A549 cells compared with PEM alone ([6]; MTT, series of concentrations, 72 h) | cell toxicity at 100 μM (LLC cells) ([3]; MTT, 100 μM, 72 h) | cell toxicity at 100 μM (A549 cells) ([6]; MTT, 100 μM, 72 h) |
| --- | --- | --- | --- | --- | --- | --- | --- | --- | --- | --- | --- | --- | --- | --- | --- | --- | --- | --- |
| Nc1nc2[nH]cc(CCc3ccc(C(=O)N[C@@H](CCC(=O)O)C(=O)O)cc3)c2c(=O)[nH]1 [PEM, Pemetrexed] | could kill most cells | could kill most cells | no cytotoxicity | no influence on mouse weight | significantly inhibited | no cytotoxicity | – | – | – | – | – | – | – | – | – | – | – | – |
| N=C(N)NCCC[C@H](NC(=O)[C@H](Cc1ccccc1)NC(=O)[C@H](Cc1ccccc1)NC(=O)C(CCC(=O)O)NC(=O)c1ccc(CCc2c[nH]c3nc(N)[nH]c(=O)c23)cc1)C(=O)NCC(=O)N[C@@H](CC(=O)O)C(=O)O (some centres unmarked) [PEM-FFRGD] (X1-[ξE]FFRGD-OH) | – | – | no cytotoxicity | – | – | – | stronger cytotoxic activity | showed cytotoxic activity | not different | not different | not different | not different | no systemic toxicity | no cytotoxicity | showed cytotoxic activity | stronger cytotoxic activity | – | – |
| FFRGD [FFRGD, reference compound] | – | – | – | no influence on mouse weight | – | – | – | – | – | – | – | – | – | – | – | – | did not display any distinct cell toxicity | did not display any distinct cell toxicity |
